# Data published in the supplement of paper PMC10307832.
# Legend:
# Test in all cases: relative viability (nuclei count vs DMSO), 5 days (fraction); higher = more cells survive
# XMD8-85 = compound: CN1CCN(CC1)C2=CC(=C(C=C2)NC3=NC=C4C(=N3)N(C5=CC=CC=C5C(=O)N4C)C)OC [XMD8-85]
# How it was run: (§1)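 Hoechst staining, done together with fixation and permeabilisation, marked nuclei for 4× imaging and MetaXpress counting. This followed 5 days without medium change after lung cancer cell lines, kept overnight at 37 °C in 1536-well plates, were pinned with five library-drug doses (not always all listed) spaced by √10 on vehicle-anchored plates. Viability is the ratio of treated-well to vehicle-well nuclei, expressed as a median across plates. Plates passed only at control CV below 25% with at least one doubling.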
# 4EGI-1 = compound: O=C(O)C(Cc1ccccc1[N+](=O)[O-])=NNc1nc(-c2ccc(Cl)c(Cl)c2)cs1 (mixture of isomers) [4EGI-1]
# How it was run: as §1
# 4EGI-1 + Phenformin = compound: O=C(O)C(Cc1ccccc1[N+](=O)[O-])=NNc1nc(-c2ccc(Cl)c(Cl)c2)cs1 (mixture of isomers) [4EGI-1] + N=C(N)NC(=N)NCCc1ccccc1 [Phenformin] (partner 250 µM)
# How it was run: (§2)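 Relative viability equals treated-well nuclei counts divided by vehicle-well nuclei counts. Counts came from 4× images of lung cancer cell lines grown in 1536-well plates for 5 days after pin-tool dosing on the day after seeding. Dosing used one drug alone or a fixed anchor-drug dose plus five library-drug doses (not always all listed) in √10 steps, and values are medians of duplicate plates.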
# XMD8-85 + Navitoclax = compound: CN1CCN(CC1)C2=CC(=C(C=C2)NC3=NC=C4C(=N3)N(C5=CC=CC=C5C(=O)N4C)C)OC [XMD8-85] + CC1(C)CCC(c2ccc(Cl)cc2)=C(CN2CCN(c3ccc(C(=O)NS(=O)(=O)c4ccc(N[C@H](CCN5CCOCC5)CSc5ccccc5)c(S(=O)(=O)C(F)(F)F)c4)cc3)CC2)C1 [Navitoclax] (partner 0.5 µM)
# How it was run: as §2
Cell Line,relative viability (XMD8-85; 0.08 µM),relative viability (XMD8-85; 0.253 µM),relative viability (XMD8-85; 0.8 µM),relative viability (XMD8-85; 2.53 µM),relative viability (XMD8-85; 8 µM),relative viability (4EGI-1; 0.5 µM),relative viability (4EGI-1; 1.581 µM),relative viability (4EGI-1; 5 µM),relative viability (4EGI-1; 15.81 µM),relative viability (4EGI-1; 50 µM),relative viability (4EGI-1 + Phenformin; first compound 0.5 µM),relative viability (4EGI-1 + Phenformin; first compound 1.581 µM),relative viability (4EGI-1 + Phenformin; first compound 5 µM),relative viability (4EGI-1 + Phenformin; first compound 15.81 µM),relative viability (4EGI-1 + Phenformin; first compound 50 µM),relative viability (XMD8-85 + Navitoclax; first compound 0.08 µM),relative viability (XMD8-85 + Navitoclax; first compound 0.253 µM),relative viability (XMD8-85 + Navitoclax; first compound 0.8 µM),relative viability (XMD8-85 + Navitoclax; first compound 2.53 µM),relative viability (XMD8-85 + Navitoclax; first compound 8 µM)
201T,1,0.983,0.986,0.978,0.757,1.05,0.955,1.05,0.965,0.806,0.456,0.475,0.427,0.45,0.428,1.2,1.24,1.26,1.19,1.08
A549,0.954,1,1.05,1.05,0.995,1.03,0.792,0.977,0.929,0.369,0.154,–,0.172,0.148,0.0933,1.33,1.24,1.28,1.19,0.933
A-427,1.04,1,1.07,1.12,0.74,1.05,0.762,1,0.86,0.254,0.331,0.316,0.326,0.274,0.156,0.993,0.995,1.03,1.03,0.95
ABC-1,0.879,0.87,1.17,0.952,0.517,1.08,0.819,1.1,0.525,0.195,0.239,0.234,0.215,0.209,0.171,–,–,–,–,–
BEN,1.03,0.956,0.901,0.7,0.523,1.15,1.07,1.06,0.98,0.728,0.278,0.267,0.281,0.241,0.269,0.0618,0.0742,0.437,0.0692,0.0637
CAL-12T,0.936,1.06,0.871,0.908,0.654,1.03,–,0.963,0.878,0.518,0.578,0.465,0.609,0.527,0.179,1.18,1.11,1.1,1.06,0.759
COR-L23,1.11,1.07,1.06,1.12,0.886,1.08,0.859,1.11,0.771,0.155,0.49,0.275,0.429,0.296,0.144,1.24,1.06,1.02,0.871,0.629
COR-L 105,0.913,0.861,0.836,0.853,0.411,0.91,0.879,0.986,0.644,0.648,0.46,0.442,0.488,0.375,0.31,0.83,0.819,0.738,0.563,0.337
Calu-6,1.02,0.962,1.08,0.96,0.834,1.03,0.887,1.1,0.951,0.618,–,–,–,–,–,0.93,0.953,0.911,1.02,0.668
ChaGo-K-1,0.953,0.969,0.917,1.06,0.959,0.976,0.762,1.03,0.861,0.616,0.447,0.439,0.543,0.49,0.351,0.788,0.983,1.02,1.13,0.421
EBC-1,0.944,1.06,0.937,0.816,0.386,1.11,1.05,1.11,0.726,0.296,–,–,–,–,–,0.437,0.375,0.402,0.296,0.268
EKVX,0.966,1.05,1.02,1.19,0.863,1.05,0.746,1.04,0.698,0.859,0.223,0.213,0.234,0.189,0.215,0.931,0.999,0.89,1.03,0.892
EMC-BAC-2,1.04,1.03,0.956,1.01,0.778,1.07,–,1.07,0.976,0.538,0.664,0.524,0.612,0.608,0.385,1.12,1.23,1.16,1.13,1.16
EPLC-272H,0.937,1.07,0.885,0.876,0.608,1.07,0.659,1.12,0.713,0.235,0.348,–,0.302,0.273,0.158,–,1.3,1.08,1.05,0.679
H3255,1.1,0.929,0.882,0.916,0.674,1.1,0.784,1.01,0.801,0.981,0.424,0.347,0.385,0.308,0.324,0.519,0.581,0.45,0.484,0.284
HARA,0.95,0.976,0.902,1.03,0.611,1.07,1,1.07,0.765,0.257,0.593,0.506,0.497,0.41,0.376,1.17,1.15,1.13,1,0.443
HCC-15,1.01,1.02,1.08,1.06,0.849,0.982,1.02,1.02,0.947,0.583,0.494,–,0.473,0.47,0.161,0.731,0.642,0.698,0.655,0.499
HCC-44,1.02,0.948,–,1.02,0.812,0.999,0.507,0.993,0.877,0.695,0.184,–,0.192,0.118,0.137,1.03,1.03,1.05,0.796,0.434

Cell Line,relative viability (XMD8-85; 0.08 µM),relative viability (XMD8-85; 0.253 µM),relative viability (XMD8-85; 0.8 µM),relative viability (XMD8-85; 2.53 µM),relative viability (XMD8-85; 8 µM),relative viability (4EGI-1; 0.5 µM),relative viability (4EGI-1; 1.581 µM),relative viability (4EGI-1; 5 µM),relative viability (4EGI-1; 15.81 µM),relative viability (4EGI-1; 50 µM),relative viability (4EGI-1 + Phenformin; first compound 0.5 µM),relative viability (4EGI-1 + Phenformin; first compound 1.581 µM),relative viability (4EGI-1 + Phenformin; first compound 5 µM),relative viability (4EGI-1 + Phenformin; first compound 15.81 µM),relative viability (4EGI-1 + Phenformin; first compound 50 µM),relative viability (XMD8-85 + Navitoclax; first compound 0.08 µM),relative viability (XMD8-85 + Navitoclax; first compound 0.253 µM),relative viability (XMD8-85 + Navitoclax; first compound 0.8 µM),relative viability (XMD8-85 + Navitoclax; first compound 2.53 µM),relative viability (XMD8-85 + Navitoclax; first compound 8 µM)
HCC-78,1.14,1.02,0.848,0.92,0.512,1.09,0.739,0.994,0.884,0.872,0.812,–,0.741,0.668,0.658,0.891,0.882,0.6,0.682,0.58
HCC-366,1.03,1.03,1.07,1,0.938,1.02,0.816,1.02,0.983,0.411,0.676,0.569,0.741,0.631,0.443,1.12,1.06,1.27,1.06,0.63
HCC-827,1.03,1.04,1.01,1.08,1.04,1.02,0.923,1.07,–,0.922,0.403,0.394,0.396,–,0.353,1.02,1.01,0.985,0.909,1.03
HOP-62,1.08,1.06,0.952,1.01,–,1.02,–,1.02,0.999,0.744,0.677,0.446,0.73,0.667,0.537,0.996,1.08,0.939,0.992,0.79
IA-LM,0.84,0.923,0.872,0.723,0.489,1.03,0.848,0.923,0.152,0.0847,–,–,–,–,–,0.75,–,0.763,0.641,0.185
LC-2-ad,1.02,0.987,1.03,0.925,0.498,1.06,0.716,0.969,0.526,0.248,0.601,–,0.649,0.342,0.265,0.512,0.364,–,0.574,0.328
LCLC-103H,0.929,1.03,1.05,1.04,0.88,1.01,0.929,1.01,0.972,0.696,0.337,0.349,0.34,0.354,0.287,–,–,–,–,–
NCI-H358,0.881,0.914,0.977,0.984,0.691,1.01,0.767,0.998,0.629,0.16,0.311,0.297,0.343,0.215,0.111,–,–,–,–,–
NCI-H522,0.94,1.11,0.947,1.09,0.677,1.01,0.878,0.99,0.922,0.69,0.641,0.548,0.676,0.626,0.551,–,–,–,–,–
NCI-H650,0.989,1.01,0.948,0.841,0.556,1.12,–,1.03,0.959,0.753,0.455,–,0.451,0.47,0.31,–,–,–,–,–
NCI-H661,1,1.01,0.963,1.05,0.903,0.975,0.911,0.974,0.583,0.467,0.274,0.267,0.297,0.274,0.243,–,–,–,–,–
NCI-H1299,1.06,1.03,1.01,0.98,0.81,1.02,1.01,1.01,1.03,0.828,–,–,–,–,–,1.1,1.06,1.06,1,0.804
NCI-H1563,1.06,0.925,0.904,0.951,0.88,1.1,0.875,0.976,0.893,0.625,0.624,0.613,0.602,0.69,0.55,–,–,–,–,–
NCI-H1623,0.906,0.891,0.88,0.986,0.833,1.17,0.85,1.07,0.783,0.843,0.586,0.5,0.607,0.45,0.53,–,–,–,–,–
NCI-H1648,0.827,0.73,0.7,0.829,0.869,0.831,0.958,0.968,0.808,0.509,–,–,–,–,–,–,–,–,–,–
NCI-H1703,0.934,1.06,1.06,0.967,0.822,1.34,1.08,1.12,0.928,0.571,–,–,–,–,–,1.02,1.18,1.23,1.13,0.983
NCI-H2342,0.873,1.07,1.02,1.02,1.06,1.13,0.889,0.989,1.03,0.869,0.582,0.588,0.716,0.641,0.522,–,–,–,–,–
SW 900,0.791,1.04,0.759,0.861,0.465,1.05,0.755,0.89,0.642,0.213,0.812,–,0.807,0.527,0.322,–,–,–,–,–
